From US20230034660A1, “PEPTIDES THAT ENHANCE NMDA RECEPTOR FUNCTION AND USE THEREOF” (University of Pittsburgh - Of the Commonwealth System of …, priority 2019, published 2023)

Target: T1, GluN2A-ZnT1 interactions (Rattus norvegicus, UniProt Q62720)
T1 construct: endogenous in cells; host or cells: rat embryonic (E16) cortical cultures, 3-4 weeks in vitro
T1 sequence (Q62720 1-507): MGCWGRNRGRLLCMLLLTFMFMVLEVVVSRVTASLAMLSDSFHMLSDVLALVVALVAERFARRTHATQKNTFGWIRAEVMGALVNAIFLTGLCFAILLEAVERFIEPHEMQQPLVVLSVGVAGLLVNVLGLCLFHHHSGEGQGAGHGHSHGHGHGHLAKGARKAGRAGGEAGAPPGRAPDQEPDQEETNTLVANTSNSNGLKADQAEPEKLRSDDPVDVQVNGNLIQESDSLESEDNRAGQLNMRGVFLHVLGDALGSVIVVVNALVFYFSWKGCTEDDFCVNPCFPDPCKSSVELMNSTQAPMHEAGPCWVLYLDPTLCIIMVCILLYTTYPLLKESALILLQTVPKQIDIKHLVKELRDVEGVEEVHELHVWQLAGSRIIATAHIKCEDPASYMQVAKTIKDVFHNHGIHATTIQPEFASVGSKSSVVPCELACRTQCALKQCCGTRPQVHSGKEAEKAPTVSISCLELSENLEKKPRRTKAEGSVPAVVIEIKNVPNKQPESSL
Assay: Proximity ligation assay (PLA) between GluN2A and ZnT1 in cortical cultures
Type: cell-based
Conditions: 3 μM overnight, cortical cultures 21-25 DIV, compared to scramble controls in sister cultures
Description: FIGS. 3A-3B: N2AZ disrupts ZnT1 binding to the GluN2A subunit of NMDAR. (FIG. 3A) Representative images of rat cortical cultures following proximity ligation assay (PLA) between GluN2A and ZnT1. The PLA immunofluorescently labeled sites of interaction between GluN2A and ZnT1 (white punctae). Additionally, Map2 is immunofluorescently labeled to visualize neuron morphology. Scale bar: 20 μm. Top row denotes PLA assay following overnight exposure to 3 μM scN2AZ, while bottom row denotes PLA assay following 3 μM N2AZ treatment. Insets show the localization of PLA punctae along a Map2 stained dendrite. […] Filled circles indicate the quantification of representative images in FIG. 3A. Error bars indicate mean±SEM. […]
Proximity ligation assays were performed using Duolink PLA kit. […] PLA puncta were counted automatically using Fiji ImageJ (Version 2.0) software using maximum intensity projection of 8 sequential images in the z plane. All images were normalized to the same intensity threshold using the Yen threshold setting prior to automated quantification of punctae.
Next, rat neuronal cortical cultures were utilized to determine whether N2AZ treatment was sufficient to disrupt GluN2A-ZnT1 binding in vitro. First, however, ZnT1 expression in cortical cultures was verified using quantitative PCR. […] Next, GluN2A-ZnT1 interactions in the cultures were quantified using a proximity ligation assay (PLA). […]

Question: Which “amount of PLA puncta” value does the source give for NDSYLRSSL [Peptide N2AZ] here?
Answer: Its value is “significantly reduced”.
